The source of these data is US20240091169A1, “POL[…] FOR TREATING INFLAMMATORY DISEASES” (UNIVERSITY OF SOUTH CAROLINA, priority 2022, published 2024).

Test [1] has as its system BMDMs cultured with C26 CM. Put plainly: Macrophage polarization of BMDMs cultured with C26 CM (flow cytometry). The class given is cell-based, C57BL/6 mice. The following applies: 48 hr, PA vs VEH. As for the experimental part: (§1) Bone marrow-derived macrophages (BMDMs) were isolated from healthy 10-14-week-old C57BL/6 male mice. Briefly, mice were euthanized by isoflurane overdose. Femurs were cleared of muscle and debris. The epiphyses of the femurs were cut and placed knee-down and spun down in a 1.5 mL tube. Bone marrow was collected and resuspended in complete DMEM (cDMEM; 10% FBS, 1% penicillin/streptomycin) and passed through two 100 μm strainers. Cells were plated on an untreated 10 cm dish in cDMEM and allowed to incubate at 37° C. for 4 hr. Adherent/mature monocytes and dendritic cells were discarded, while floating/immature monocytes were collected. Cells were subjected to RBC lysis and resuspended in bone marrow maintenance media (BMMM; 20% L929-conditioned media in cDMEM). Cells were then plated on surface-treated 6-well plates at a 250 k cells/well seeding density. On day 3, fresh BMMM was added. On day 5, media was aspirated and fresh BMMM was added. For M2 macrophage polarization experiments, 6-day mature macrophages were given either cDMEM+VEH, M2 media (cDMEM with 10 ng/mL IL-4)+VEH, or M2 media+1 μM PA. Cells were incubated for 24 hr. For C26 colon tumor conditioned media (C26 CM) experiments, 6-day mature macrophages were given either serum-free media (SFM)+VEH, 33% C26-conditioned media (C26 CM)+VEH, or 33% C26 CM+1, 2.5, or 5 μM PA. Cells were incubated for 48 hr. After incubation with these different treatments, cells were washed twice with PBS and incubated with 5 mM EDTA PBS at 4° C. for 20 min. Cells were then gently scraped and transferred into flow tubes, spun at 1600 rpm at 4° C. for 5 min, and washed in PBS before antibody staining. Cells were stained and analyzed for macrophages via flow cytometry as described above with the addition of analyzing macrophage phenotypes. From the CD11b^+CD68^+ macrophage population, macrophage phenotypes were determined based on CD206 and CD11c expression. CD206^−CD11c^− cells were identified as M0 macrophages; CD206^−CD11c^+ as M1 macrophages; CD206^+CD11c^− cells as M2 macrophages; CD206^+CD11c^+ as M1-M2 transitional macrophages. All cells were measured using a FACS Aria II (BD) and analyzed using FlowJo (BD Biosciences). Three independent experiments were carried out for each in vitro assessment.

For test [2], the system named is DSS-induced chronic colitis. Put plainly: DSS mouse model, Experiment 1: chronic colitis. The test is classed as in vivo, C57BL/6 female mice. As to the method:
Experiment 1—Chronic Colitis: 14-week-old C57BL/6 female mice were given 3 cycles of DSS. Each cycle consisted of 7 days on DSS (cycle 1: 1%; cycle 2: 1.5%, cycle 3: 1%), immediately followed by 7 days of regular drinking water. Either vehicle or panaxynol was administered 3×/week beginning on the day prior to the first DSS cycle (day −1) until study completion (FIG. 9A). To ensure the induction of colitis and to quantify disease states, colitis symptoms were monitored 3×/week using a pre-established disease activity index (DAI), which quantifies bodyweight loss, stool consistency, and rectal bleeding to produce an overall symptom score; a higher score correlates with worsened disease. Mice were euthanized on day 42—one day after the last dose of panaxynol was given. Data presented in FIG. 9A-9F was obtained from 2 cohorts of Experiment 1—Chronic Colitis.
Panaxynol (PA; C17H24O) was purchased from Biopurify Pytochemicals Ltd in sealed 5 mg/mL vials in pure 95% ethanol and stored at −20° C. PA was prepared fresh on the day of treatment by diluting in H2O to 1 mg/mL for administration (p.o.) at a dosage of 2.5 mg/kg. This dosage was chosen following a pilot dose-response study to determine PA's efficacy. PA or VEH was administered 3×/week via oral gavage using flexible plastic tubing gavage needles (Instech, Cat #FTP-20) for a total of 12 weeks.
All mice underwent the same symptom monitoring and scoring. Body weights and symptom scores were determined […] to quantify disease state, with a higher score indicative of a worsened disease state. Symptom scores were calculated by scoring percent body weight loss, stool consistency, and rectal bleeding as previously described. Briefly, fresh colonic evacuates were smeared onto “Hemoccult” tape (Beckman Coulter) to assess severity of diarrhea and were tested with developer (Beckman Coulter) to assess rectal bleeding. Stool consistency was scored as follows: solid cylinder (0), soft cylinder and easily spreadable (2), and noncylindrical or runny (4). Bleeding was scored as follows: no positive detection of blood (0), detection of blood but not grossly visible (2), and gross visibility of blood (4). Body weight was calculated as percent bodyweight loss: 0%-5% (0), 6%-10% (1), 11%-15% (2), 15%-20% (3), 20%-25% (4), and >25% (5). Scores of all three categories were summed to obtain an overall symptom score for each mouse.
Prior to euthanasia, colonoscopies were performed (n=3/group) to visualize the colonic tissue and quantify the severity of disease (colitis and colorectal tumors) using an established protocol. Briefly, mice were anesthetized with isoflurane to perform a detailed endoscopic examination in which the endoscope was gently inserted into the rectum and through the anus. Air was applied to slowly set apart the intestinal walls for examination. As the scope advanced, pictures were taken frequently and the following were meticulously assessed and scored by the blinded primary investigator using the well-established scoring system to integrate evaluation of intestinal inflammation (i.e., focal lesions (edematous areas of mucosa, erosions/reddened areas, ulcers), perianal region findings (diarrhea, bloody anal discharge, or prolapse), transparency of the colonic wall (visualization of the intramural blood vessels), and presence of intestinal bleeding) and tumors. Scoring was performed as previously described with no modifications. Upon completion of colonoscopies, mice were placed on a warm pad set at 37° C. for 5 min.

Test [3] relates to BMDMs incubated with IL-4 (M2 media). Put plainly: M2 macrophage polarization of BMDMs with IL-4 (flow cytometry). The test is classed as cell-based, C57BL/6 mice. As to conditions: 1 μM PA, M2 media (IL-4), 24 hr, vs VEH. As to the method: as §1, with “CD206^−CD11c^− cells were identified as M0 macrophages; CD206^−CD11c^+ as M1 macrophages; CD206^+CD11c^− cells as M2 macrophages; CD206^+CD11c^+ as M1-M2 transitional macrophages.” left out, “Three independent experiments were carried out for each in vitro assessment.” left out
Background: In flow cytometry, cells or beads pass a laser one at a time.

Regarding `C=CC(O)C#CC#CC/C=C\CCCCCCC` (stereo in doubt) [PA, 3(R)-(9Z)-heptadeca-1,9-dien-4,6-diyn-3-ol], in test [1], the “relative abundance of M0 macrophages” value was “No significant differences”, the “relative abundance of M1-M2 macrophages” value was “No significant differences” and the “relative abundance of M1 macrophages” value is on record as “No significant differences”. Moreover, in test [1] (p≤0.05), the “relative abundance of pro-tumoral M2 macrophages” value was “significantly reduced”. Also, in test [2] (DAI, vs DSS+Veh), the rectal bleeding result is recorded as “decreased” and the stool consistency result is reported as “improved”. The “reduction in ulcerations (endoscopic score)” value in test [2] (day 42, vs DSS+Veh, p=0.001) was found to be 65%. Also, the “reduction in total lesions (endoscopic score)” value in test [2] (day 42, vs DSS+Veh, p=0.005) was found to be 70%. Further, in test [2] (day 42, vs DSS+Veh, p=0.016), the “reduction in inflammation (endoscopic score)” value is recorded as 54% and the “reduction in total endoscopic scores” value is 52%. Also, the “reduction in erosions (endoscopic score)” value in test [2] (day 42, vs DSS+Veh, p=0.017) was found to be 74%. Further, the body weight in test [2] (end of study, not significant vs DSS+Veh 20.7±0.4, p=0.862) worked out at 20.3 ± 0.7 g. The DAI scores entry in test [2] (throughout treatment, vs DSS+Veh) is given as “significantly (p≤0.05) improved”. Moreover, the “naïve M0 macrophages” value in test [3] (p=0.06) is recorded as “increased”. Also, the M2 macrophages entry in test [3] (p=0.08) is listed as “non-significantly reduced”. Moreover, the “transitional M1-M2 macrophages” value in test [3] (p=0.12) was “non-significantly reduced”.
